B1: Papain: cysteine protease enzyme obtained from the fruit and leaves of Carica papaya (EDC papain) (protein, UniProt P00784 134-345, looked up)
Papain: IPEYVDWRQKGAVTPVKNQGSCGSCWAFSAVVTIEGIIKIRTGNLNEYSEQELLDCDRRSYGCNGGYPWSALQLVAQYGIHYRNTYPYEGVQRYCRSREKGPYAAKTDGVRQVQPYNEGALLYSIANQPVSVVLEAAGKDFQLYRGGIFVGPCGNKVDHAVAAVGYGPNYILIKNSWGTGWGENGYIRIKRGTGNSYGVCGLYTSSFYPVKN

Columns and labels:
[1] = generic protease activity assay (Panvera); assay type: biochemical; conditions: neat powder, 40° C., neutral pH; +/-3
Experimental: The activity of proteases was evaluated using generic protease assay from Panvera at 40° C. and neutral pH. The activity was assessed relative to papain on an equal weight basis of neat powder samples. Krillase protease enzymes are a mixture of eight different proteases; thus, the activity of any one of the eight was not discernable by the present assay. The assay aided in determining dose for the dose response studies. In clinical formulations, enzymes were dosed based on an equal weight basis. Table 2 gives the relative activity of neat enzymes.

[2] = tested on: oral bacteria culture on saliva-coated hydropxyapatite (SHAP) disks; test: Artificial Mouth anti-attachment efficacy model (chemostat flow cell, SHAP disks); assay type: cell-based; conditions: for anti-adhesion efficacy, ranking of in vitro results: toothpaste formulas; for anti-adhesion efficacy relative to matching negative control paste (statistical analysis): toothpaste with 0.226 weight percent protease, ABS610 after 24 hours
Excerpt: To test the efficacy of the actives in toothpaste formulas, the Artificial Mouth model was utilized. This is generally described in Herles, S., S. Olsen, et al. (1994). “Chemostat flow cell system: an in vitro model for the evaluation of antiplaque agents.” J Dent Res 73(11): 1748-55. The Artificial Mouth model is a flow system that simulates the human mouth. Saliva-coated hydropxyapatite (SHAP) disks served as the artificial teeth, and a bacteria culture consisting of the main oral bacteria in humans flowed through the system at a speed consistent with the in vivo human saliva. Eight disks for each treatment were then placed in the chemostat flow cell and oral bacteria culture was allowed to flow through the disks overnight (20-24 hours) to see if actives coated on the disk surfaces would prevent bio-film formation. After 24 hours the SHAP disks were removed and amount of bacteria quantified. The ABS610 of the solutions were then measured and analyzed. […] From this value, the percentage anti-adhesion effectiveness of the pastes is evaluated relative to a matching negative control. Two concentrations of protease were tested for each of the three protease; namely. 0.226 weight percent and 0.065 weight percent.

Row | Molecule | Activity by protease assay [1] | anti-adhesion efficacy, ranking of in vitro results [2] | anti-adhesion efficacy relative to matching negative control paste (statistical analysis) [2]
1 | Ficin | 23 CPU/g | better then the papain | showed efficacy
2 | B1 | 25 CPU/g | better then the matching placebo paste | showed efficacy
